We go through one molecule from PMC3726599, “A Metabolically-Stabilized Phosphonate Analog of Lysophosphatidic Acid Attenuates Collagen-Induced Arthritis” (PLoS ONE, 2013).

For assay [1], the system named is peri-tumor tissue fibroblasts, hepatocellular carcinoma cells. The arrangement: method as in PMID 21674557. As to conditions: cited from earlier work.
For another assay, the system named is T1, plasma ATX activity.
T1 construct: from tissue; host or cells: mouse plasma / whole blood
Description: In vivo inhibition of plasma ATX activity (TOOS assay). The arrangement: species or system mouse. The settings on record: 10 mg/kg i.p. How it is done:
ATX/LysoPLD activity was assessed based on the amount of choline released from LPC with the use of TOOS (N-ethyl-N-(2-hydoroxy-3-sulfopropyl)-3-methylaniline) reagent. In this assay ATX-mediated LPC-liberated choline is oxidised by choline oxidase to betaine and hydrogen peroxide (H2O2). The latter in the presence of horseradish peroxidase reacts with TOOS and 4-aminoantipyrene (4-AAP) to form a pink quinoneimine dye measured at 555 nm. […]
The liberated choline was detected by adding 100 μl of a color mix containing 4-AAP and TOOS (0.3 mM), horseradish peroxidase (5.3 UnitmL^−1) and choline oxidase (2 UnitmL^−1). Absorbance was measured at 555 nm and data were analyzed using the statistical software package Prism 4.0 (Graphpad Software Inc, La Jolla, CA, USA). For each sample and control the absorbance was plotted against time and the slope (da/min) for the linear (steady-state) portion of each reaction profile was calculated. Absorbance units were converted to nmol of choline/min/ml by comparison with a choline standard curve or by use of the extinction coefficient for the quinoneimine dye according to the following equation: [drawing 1] […]
(§1) BrP-LPA was administered intraperitoneally (IP) at 10 mg/kg in water to 6–8 week old female mice. […] Plasma samples were then analysed for plasma ATX activity and BrP-LPA/LPA/LPC levels with the TOOS activity assay and HPLC-MS/MS respectively. […]

The subject of a further assay is plasma LPA levels. Description: In vivo plasma LPA and LPC levels (HPLC-MS/MS). The arrangement: species or system mouse. The settings on record: 10 mg/kg i.p. How it is done:
BrP-LPA, LPA species (C14:0, C16:0, C18:0, C18:1 and C20:4) and LPC species (C14:0, C16:0, C18:0, C18:1 and C20:0) were measured in plasma with HPLC-ESI/MS/MS using RSLCnano system (Ultimate 3000) coupled in-line with an LTQ Orbitrap XL mass spectrometer (Thermo Scientific, Waltham, MA, USA). BrP-LPA and lipid (LPA, LPC) extraction from plasma was performed on ice according to the Folch method with minor modifications. Plasma samples (50 ul) were mixed with 950 ul PBS prior to extraction and spiked with the internal standard mix (17:1 LPA/LPC). Samples were extracted under neutral conditions with 4 ml of ice-cold CHCl3/CH3OH (2/1, v/v) followed by 2 ml of PBS-saturated ice-cold CHCl3/CH3OH (2/1, v/v). Each extraction step was followed by a 60 s vortex and a 1 min centrifugation step in a bench-top clinical centrifuge in a cold room at 4°C at 3,000 rpm. The lower chloroform organic phases from both neutral extraction steps were pooled and kept for LPC measurement. The remained aqueous phase was chilled on ice for 10 min and extracted twice with ice-cold acidified with acetic acid CHCl3/CH3OH (2/1, v/v) as above. The lower organic phases were pooled, neutralized to pH 6–7 (checked with pH paper as above) on ice and kept for LPA, BrP-LPA measurements. The kept neutral lower organic phase of neutral extraction and the neutralized acidified lower organic phase were evaporated to dryness. The resulting residues were resuspended in 0.15 ml of isopropanol and after brief vortex mixing the solution was transferred to the auto sampler vial. Recovery of LPA species was between 60% and 95%. Recovery of BrP-LPA was 70% and the recovery of LPC species was between 80% and 100%. The Relative Standard Deviation (RSD) was less than 7% from the plasma fortified with three different concentrations (0.1, 0.5 and 1 μΜ) of LPAs, (0.1, 1 and 10 μΜ) of BrP-LPA and (0.5, 5 and 50 μΜ) of LPCs. Analysis was performed using a Phenomenex (Phenomenex, Torrance, CA, USA) Luna Silica column (2–250 mm, 5 μm particle size) using a binary gradient program consisting of isopropanol:hexane:100 mM NH4CO2H(aq) 58:40:2 (mobile phase A) and isopropanol:hexane:100 mM NH4CO2H(aq) 50:40:10 (mobile phase B). The mobile phase was delivered at a flow rate of 0.3 ml/min and the total run time was 50 min/sample. […] The precursor ion mass was used for the quantification while lipid identity was confirmed by precursor ion fragmentation using collision induced dissociation (CID). […]
as §1

For a further assay, the system named is liver tumor. The arrangement: method as in earlier work. As to conditions: in vivo; cited from earlier work.
Assay [2] has as its system transformed NIH3T3 cells expressing ras and ATX. The arrangement: method as in PMID 18454946. The settings on record: cited from earlier work.
Where [3] appears, read: sixteen hours post administration.

The structures appear in SMILES notation.

Regarding `CCCCCCCCCCCCCCCC(=O)OC[C@@H](O)CC(Br)P(=O)(O)O` (stereo partly drawn) [BrP-LPA, 1-bromo-3(S)-hydroxy-4-(palmitoyloxy)butyl-phosphonate], the “trans-differentiation of peri-tumor fibroblasts and HCC cell proliferation, migration, invasion” value in assay [1] was “block the trans-differentiation of peri-tumor tissue fibroblasts and the associated proliferation, migration and invasion of hepatocellular carcinoma cells”. In addition, the “reduction of plasma ATX activity” value in the assay with plasma ATX activity (1 hour post administration) is reported as 48%. Further, the “ATX activity, % of initial activity” value in the assay with plasma ATX activity (setting [3]) is given as 92%. In the assay on plasma LPA levels, the “plasma LPC levels” value is on record as “remain unchanged” and the “production of LPA species in plasma” value is “inhibited the production of all LPA species tested except from 14:0 LPA”. In addition, the “reduction of total plasma LPA levels” value in the assay on plasma LPA levels (1 hour post administration) amounted to 82%. Further, the “LPA levels, % of normal initial levels” value in the assay with plasma LPA levels (setting [3]) is given as 60–70%. In addition, the “liver tumor weight and volume” value in the assay on liver tumor was “reduce liver tumor weight and volume in vivo”. Further, the inhibition of invasiveness in assay [2] is recorded as 40%.
